Strand notation (5' to 3'): a small letter for the sugar, then the base; units joined by * are phosphorothioate-linked, units joined directly phosphodiester-linked; [ ] holds rarer units or linkages, { } end groups; capitals alone tell only the bases. d = 2'-deoxy (DNA)

One data set has as its system T24 bladder cell carcinoma. Briefly: Relative colony forming efficiency after antisense treatment (Table 13). It is filed as cell-based, human. Particulars: 0.2 μM antisense oligodeoxyribonucleotide phosphorothioate; T24 cells; averages of 2-8 determinations.
With “GGGCACATCTTCAGTTCATT (DNA, all phosphorothioate, methylation of C not given here) [AS-II-1364-20]”, the “Reduced relative colony forming efficiency, expressed as % inhibition, T24” value turned out to be 66.59%.

“TTAGAAGTCAGCATCCAAGG (DNA, all phosphorothioate, methylation of C not given here) [AS-II-1345-20]”: the “Reduced relative colony forming efficiency, expressed as % inhibition, T24” value came to 51.26%.

Consider “GCCACAGGATAAAAACACAA (antisense; DNA, all phosphorothioate, methylation of C not given here) [AS-II-2009-20]”, for which the “Reduced relative colony forming efficiency, expressed as % inhibition, T24” value is 61.84%.

With “GACATCACTCCCATCCTCTG (DNA, all phosphorothioate, methylation of C not given here) [AS-II-1302-20]”, the “Reduced relative colony forming efficiency, expressed as % inhibition, T24” value was determined as 70.56%.

For “GCAAAGAAAGCCAGAACATG (dG*dC*dA*dA*dA*dG*dA*dA*dA*dG*dC*dC*dA*dG*dA*dA*dC*dA*dT*dG; antisense) [AS-II-579-20]”, the “Reduced relative colony forming efficiency, expressed as % inhibition, T24” value stood at 76.68%.

Consider “GAGAAATAAAATGAAACGGC (antisense; DNA, all phosphorothioate, methylation of C not given here) [AS-II-2164-20]”, for which the “Reduced relative colony forming efficiency, expressed as % inhibition, T24” value was determined as 61.84%.

The next data set has as its system HCT116 colon cell carcinoma. The data set is described as above. Particulars: 0.2 μM antisense oligodeoxyribonucleotide phosphorothioate; HCT116 cells; averages of 2-8 determinations. It is filed as cell-based, human.
Consider “GGGCACATCTTCAGTTCATT (DNA, all phosphorothioate, methylation of C not given here) [AS-II-1364-20]”, for which the “Reduced relative colony forming efficiency, expressed as % inhibition, HCT116” value is listed as 77.29%.

For “TTAGAAGTCAGCATCCAAGG (DNA, all phosphorothioate, methylation of C not given here) [AS-II-1345-20]”, the “Reduced relative colony forming efficiency, expressed as % inhibition, HCT116” value was found to be 65.7%.

Consider “GCCACAGGATAAAAACACAA (antisense; DNA, all phosphorothioate, methylation of C not given here) [AS-II-2009-20]”, for which the “Reduced relative colony forming efficiency, expressed as % inhibition, HCT116” value is listed as 69.92%.

Consider “GACATCACTCCCATCCTCTG (DNA, all phosphorothioate, methylation of C not given here) [AS-II-1302-20]”, for which the “Reduced relative colony forming efficiency, expressed as % inhibition, HCT116” value worked out at 71.98%.

As to “GCAAAGAAAGCCAGAACATG (dG*dC*dA*dA*dA*dG*dA*dA*dA*dG*dC*dC*dA*dG*dA*dA*dC*dA*dT*dG; antisense) [AS-II-579-20]”, the “Reduced relative colony forming efficiency, expressed as % inhibition, HCT116” value turned out to be 69.08%.

For the sequence “GAGAAATAAAATGAAACGGC (antisense; DNA, all phosphorothioate, methylation of C not given here) [AS-II-2164-20]”, the “Reduced relative colony forming efficiency, expressed as % inhibition, HCT116” value is 50.08%.

The test system of another data set is A549 lung cell carcinoma. The data set is described as above. It is filed as cell-based, human. The conditions noted are these: 0.2 μM antisense oligodeoxyribonucleotide phosphorothioate; A549 cells; averages of 2-8 determinations.
On to “GGGCACATCTTCAGTTCATT (DNA, all phosphorothioate, methylation of C not given here) [AS-II-1364-20]”, for which the “Reduced relative colony forming efficiency, expressed as % inhibition, A549” value came to 95.59%.

“TTAGAAGTCAGCATCCAAGG (DNA, all phosphorothioate, methylation of C not given here) [AS-II-1345-20]”: the “Reduced relative colony forming efficiency, expressed as % inhibition, A549” value came out at 73.1%.

With “GCCACAGGATAAAAACACAA (antisense; DNA, all phosphorothioate, methylation of C not given here) [AS-II-2009-20]”, the “Reduced relative colony forming efficiency, expressed as % inhibition, A549” value was found to be 93.32%.

As to “GACATCACTCCCATCCTCTG (DNA, all phosphorothioate, methylation of C not given here) [AS-II-1302-20]”, the “Reduced relative colony forming efficiency, expressed as % inhibition, A549” value is given as 93.17%.

As for “GCAAAGAAAGCCAGAACATG (dG*dC*dA*dA*dA*dG*dA*dA*dA*dG*dC*dC*dA*dG*dA*dA*dC*dA*dT*dG; antisense) [AS-II-579-20]”, the “Reduced relative colony forming efficiency, expressed as % inhibition, A549” value was 95.49%.

As to “GAGAAATAAAATGAAACGGC (antisense; DNA, all phosphorothioate, methylation of C not given here) [AS-II-2164-20]”, the “Reduced relative colony forming efficiency, expressed as % inhibition, A549” value is reported as 91.15%.

The subject of another data set is MDA-MB-231 breast cell adenocarcinoma. Briefly: Relative colony forming efficiency after antisense treatment (Table 13, FIG. 11, FIG. 12). It is filed as cell-based, human. The conditions noted are these: 0.2 μM antisense oligodeoxyribonucleotide phosphorothioate; MDA-MB-231 cells; averages of 2-8 determinations. The protocol: Colony forming efficiency was determined as previously reported [Huang and Wright, 1994]. The cells were cultured for 24 hours at 37° C. in growth medium with 10% fetal bovine serum. The cells were washed in 5 ml phosphate buffered saline, pH 7.2, once prior to lipofectin+/−oligonucleotide treatment.
The oligonucleotides being tested were added to cell cultures in the presence of 2.5 μg of DOTMA/DOPE (Lipofectin; Life Technologies, Inc.) for four hours. The oligonucleotide was tested at 0.2 μM unless otherwise indicated. Controls were the cultures treated with lipofectin but without the oligonucleotide. After 4 hours the medium containing the oligonucleotide was removed and washed with 5 ml of growth medium. The cells were then cultured in growth medium containing 10% fetal bovine serum for seven to ten days. Surviving cells were visualized by methylene blue staining, and colonies were scored. In some experiments cell aliquotes were removed from the culture and viability was determined using the trypan blue exclusion test [Phillips, 1973]. Results were analyzed as percent of surviving cells compared to control cells.
To test the antisense effects of many of these sequences as phosphorthioate deoxyribonucleotides, they were examined in relative colony forming experiments performed with a series of human tumor cell lines. Many of these antisense constructs, as predicted, are potent inhibitors of human tumor cell proliferation. For results obtained with cancer cells derived from the bladder, breast, lung, colon, pancreas, prostate, liver and cervix, see Table 13. In addition, in vivo studies with AS-II-626-20 were undertaken in C3H/HeN mice as reported in Table 14 and show a significant reduction in metastasis in the antisense treated mice.
Colony forming ability of MDA-MB-231 human breast cancer cells treated with 28 different antisense oligonucleotides was estimated as previously described (Choy et al., 1988). Aliquots of cell suspension were seeded into 60 mm Petri dishes and incubated at 37° C. overnight in α-MEM medium supplemented with 10% fetal bovine serum. Cells were washed in 5 ml of phosphate buffered saline, pH 7.2, prior to 0.2 μM antisense/lipofectin treatments for 4 hours. The media containing the antisense oligonucleotides were removed and cells were washed once and cultured in growth medium for 7 to 10 days. Colonies were stained with methylene blue and scored as described (Choy et al., 1988; Huang and Wright 1994). Percent inhibition was calculated by comparison with the number of colonies present in cultures grown in the absence of antisense oligonucleotides. All experiments were performed in quadruplicate. FIG. 11 is a graph of the percentage inhibition of colony formation by treatment with the various antisense oligonucleotides.
Colony forming ability of various human tumor cell lines was estimated by determining relative colony forming efficiencies (Choy et al., 1988). Cells from various cell lines were washed in 5 ml of phosphate buffered saline, pH 7.2. The cells were treated with 0.2 μM AS-I-618-20 antisense oligonucleotide/lipofectin for 4 hours. The medium containing the antisense oligonucleotide was then removed and the cells were gently washed with 5 ml of growth medium. The cells were cultured in growth medium containing 10% fetal bovine serum for seven to ten days. […] The following human tumor cell lines were evaluated: HepG2 (liver), SK-OV-3 (ovary), U87 (brain), A2058 (melanoma), H460 (lung), MDA-MB-231 (breast) and AsPC-1 (pancreas).
For “GGGCACATCTTCAGTTCATT (DNA, all phosphorothioate, methylation of C not given here) [AS-II-1364-20]”, the “Reduced relative colony forming efficiency, expressed as % inhibition, MDA-MB-231” value came out at 93.87%.

“TTAGAAGTCAGCATCCAAGG (DNA, all phosphorothioate, methylation of C not given here) [AS-II-1345-20]”: the “Reduced relative colony forming efficiency, expressed as % inhibition, MDA-MB-231” value is reported as 94.11%.

For the sequence “GCCACAGGATAAAAACACAA (antisense; DNA, all phosphorothioate, methylation of C not given here) [AS-II-2009-20]”, the “Reduced relative colony forming efficiency, expressed as % inhibition, MDA-MB-231” value worked out at 96.25%.

Regarding “GACATCACTCCCATCCTCTG (DNA, all phosphorothioate, methylation of C not given here) [AS-II-1302-20]”, the “Reduced relative colony forming efficiency, expressed as % inhibition, MDA-MB-231” value was determined as 92.2%.

As for “GCAAAGAAAGCCAGAACATG (dG*dC*dA*dA*dA*dG*dA*dA*dA*dG*dC*dC*dA*dG*dA*dA*dC*dA*dT*dG; antisense) [AS-II-579-20]”, the “Reduced relative colony forming efficiency, expressed as % inhibition, MDA-MB-231” value amounted to 66.89%.

In the case of “GAGAAATAAAATGAAACGGC (antisense; DNA, all phosphorothioate, methylation of C not given here) [AS-II-2164-20]”, the “Reduced relative colony forming efficiency, expressed as % inhibition, MDA-MB-231” value was 69.03%.

In a further data set the test system is MIA PaCa-2 pancreatic cell carcinoma. Briefly: Relative colony forming efficiency after antisense treatment (Table 13). It is filed as cell-based, human. The conditions noted are these: 0.2 μM antisense oligodeoxyribonucleotide phosphorothioate; MIA PaCa-2 cells; averages of 2-8 determinations.
Regarding “GGGCACATCTTCAGTTCATT (DNA, all phosphorothioate, methylation of C not given here) [AS-II-1364-20]”, the “Reduced relative colony forming efficiency, expressed as % inhibition, MIA PaCa-2” value is 59.34%.

Regarding “TTAGAAGTCAGCATCCAAGG (DNA, all phosphorothioate, methylation of C not given here) [AS-II-1345-20]”, the “Reduced relative colony forming efficiency, expressed as % inhibition, MIA PaCa-2” value was 77.39%.

Turning to “GCCACAGGATAAAAACACAA (antisense; DNA, all phosphorothioate, methylation of C not given here) [AS-II-2009-20]”, the “Reduced relative colony forming efficiency, expressed as % inhibition, MIA PaCa-2” value is reported as 93.74%.

In the case of “GACATCACTCCCATCCTCTG (DNA, all phosphorothioate, methylation of C not given here) [AS-II-1302-20]”, the “Reduced relative colony forming efficiency, expressed as % inhibition, MIA PaCa-2” value stood at 23.86%.

Turning to “GCAAAGAAAGCCAGAACATG (dG*dC*dA*dA*dA*dG*dA*dA*dA*dG*dC*dC*dA*dG*dA*dA*dC*dA*dT*dG; antisense) [AS-II-579-20]”, the “Reduced relative colony forming efficiency, expressed as % inhibition, MIA PaCa-2” value was 97.55%.

For the sequence “GAGAAATAAAATGAAACGGC (antisense; DNA, all phosphorothioate, methylation of C not given here) [AS-II-2164-20]”, the “Reduced relative colony forming efficiency, expressed as % inhibition, MIA PaCa-2” value came out at 89.36%.

The test system of the next data set is PC-3 prostrate cell adenocarcinoma. The data set is described as above. The conditions noted are these: 0.2 μM antisense oligodeoxyribonucleotide phosphorothioate; PC-3 cells; averages of 2-8 determinations. It is filed as cell-based, human.
Turning to “GGGCACATCTTCAGTTCATT (DNA, all phosphorothioate, methylation of C not given here) [AS-II-1364-20]”, the “Reduced relative colony forming efficiency, expressed as % inhibition, PC-3” value is 79.01%.

Take “TTAGAAGTCAGCATCCAAGG (DNA, all phosphorothioate, methylation of C not given here) [AS-II-1345-20]”: the “Reduced relative colony forming efficiency, expressed as % inhibition, PC-3” value came out at 89.58%.

For “GCCACAGGATAAAAACACAA (antisense; DNA, all phosphorothioate, methylation of C not given here) [AS-II-2009-20]”, the “Reduced relative colony forming efficiency, expressed as % inhibition, PC-3” value is recorded as 83.36%.

As for “GACATCACTCCCATCCTCTG (DNA, all phosphorothioate, methylation of C not given here) [AS-II-1302-20]”, the “Reduced relative colony forming efficiency, expressed as % inhibition, PC-3” value is 79.01%.

As to “GCAAAGAAAGCCAGAACATG (dG*dC*dA*dA*dA*dG*dA*dA*dA*dG*dC*dC*dA*dG*dA*dA*dC*dA*dT*dG; antisense) [AS-II-579-20]”, the “Reduced relative colony forming efficiency, expressed as % inhibition, PC-3” value is 88.16%.

Regarding “GAGAAATAAAATGAAACGGC (antisense; DNA, all phosphorothioate, methylation of C not given here) [AS-II-2164-20]”, the “Reduced relative colony forming efficiency, expressed as % inhibition, PC-3” value is 83.36%.

A further data set concerns HepG2 hepatocellular carcinoma. Briefly: Relative colony forming efficiency after antisense treatment (Table 13, FIG. 12). It counts as cell-based, human. Particulars: 0.2 μM antisense oligodeoxyribonucleotide phosphorothioate; HepG2 cells; averages of 2-8 determinations.
On to “TTAGAAGTCAGCATCCAAGG (DNA, all phosphorothioate, methylation of C not given here) [AS-II-1345-20]”, for which the “Reduced relative colony forming efficiency, expressed as % inhibition, HepG2” value was 75.42%.

Consider “GCCACAGGATAAAAACACAA (antisense; DNA, all phosphorothioate, methylation of C not given here) [AS-II-2009-20]”, for which the “Reduced relative colony forming efficiency, expressed as % inhibition, HepG2” value was determined as 96.99%.

For “GCAAAGAAAGCCAGAACATG (dG*dC*dA*dA*dA*dG*dA*dA*dA*dG*dC*dC*dA*dG*dA*dA*dC*dA*dT*dG; antisense) [AS-II-579-20]”, the “Reduced relative colony forming efficiency, expressed as % inhibition, HepG2” value amounted to 94.28%.

Regarding “GAGAAATAAAATGAAACGGC (antisense; DNA, all phosphorothioate, methylation of C not given here) [AS-II-2164-20]”, the “Reduced relative colony forming efficiency, expressed as % inhibition, HepG2” value is given as 93.07%.
